Where “and” joins values, the source holds several entries; their conditions need not be identical. Identical values can stand only once.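 Cells were grown in 96-well plates and exposed to each compound for 48 hours at five concentrations; endpoints were interpolated linearly between bracketing concentrations, or set to the highest concentration if not reached. GI50 = concentration required for 50% inhibition of growth. TGI: concentration producing complete growth inhibition.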
How the values were obtained:
Assay in all cases: growth of human tumour cells (NCI), 48 h
SR leukemia = test system: SR leukemia
SNB-19 CNS = test system: SNB-19 CNS
A498 renal = test system: A498 renal
UACC-62 melanoma = test system: UACC-62 melanoma
T-47D breast = test system: T-47D breast
NCI-H522 lung = test system: NCI-H522 lung
COLO 205 colon = test system: COLO 205 colon
SN12C renal = test system: SN12C renal
SNB-75 CNS = test system: SNB-75 CNS
LXFL 529 NSCLC = test system: LXFL 529 NSCLC

Structure (SMILES)	TGI (SR leukemia)	TGI (SNB-19 CNS)	TGI (A498 renal) [µM]	TGI (UACC-62 melanoma)	TGI (T-47D breast)	TGI (NCI-H522 lung) [µM]	TGI (COLO 205 colon)	TGI (SN12C renal)	TGI (SNB-75 CNS)	TGI (LXFL 529 NSCLC) [µM]	GI50 (SNB-19 CNS)	GI50 (A498 renal) [µM]	GI50 (UACC-62 melanoma)	GI50 (T-47D breast)	GI50 (NCI-H522 lung) [µM]	GI50 (COLO 205 colon)	GI50 (SN12C renal)	GI50 (SR leukemia)	GI50 (SNB-75 CNS)	GI50 (LXFL 529 NSCLC) [µM]
COc1ccc(/C=C(\C#N)c2nc(N)nc(N3N=C(C)CC3(C)C)n2)c(O)c1	35.7 µM	> 100 µM	69.7	34.6 µM	34.5 µM	38.9	30.9 µM	> 100 µM												
CN(CCCNC(=O)c1cn(C)c2c1ccc1cc(Cl)c(Cl)cc12)CCCNC(=O)c1cn(C)c2c1ccc1cc(Cl)c(Cl)cc12	16.5 µM	17.9 µM	28	31.7 µM	36.2 µM	31.5	9.58 µM	32.3 µM	25.6 µM											
Cc1cc(O)c(C(C)C)cc1CN1CCCCC1		> 100 µM	> 100	> 100 µM	> 100 µM	> 100	> 100 µM	> 100 µM	> 100 µM											
OCCOCn1cc(Cn2ncc3c(SCc4ccccc4)ncnc32)nn1		> 100 µM	> 100	> 100 µM	> 100 µM	99.2	> 100 µM	> 100 µM	> 100 µM											
NCCNc1nc(N2CCCC2)c2nc(Cl)c(NCc3ccccc3)nc2n1	2.95 µM	3.91 µM	4.4	3.19 µM	3.79 µM	3.31	3.29 µM	2.92 µM	3.49 µM											
CC(Sc1ccccc1)C(CO)(CO)[N+](=O)[O-] (configuration not stated)	5.72 µM	43.8 µM		29.9 µM		26.3		31.2 µM	35.4 µM	27.5										
COC(=O)C1C(C)N1C (configuration not stated)		> 100 µM		> 100 µM		> 100	> 100 µM	> 100 µM	> 100 µM	> 100										
O=[n+]1c2c(n([O-])c3ccccc31)-c1cccc3cccc-2c13	> 100 µM	> 100 µM	> 100		> 100 µM	> 100	> 100 µM	> 100 µM	94.7 µM											
NNC(=O)c1ccccc1Nc1ccccc1C(=O)NN		> 100 µM		> 100 µM	> 100 µM	> 100	> 100 µM	> 100 µM	> 100 µM											
Nc1nc(N)c2c(n1)NC(c1ccccc1)CC(/C=C/c1ccc(Cl)cc1)=N2 (configuration not stated)		29.1 µM	32.9	25 µM	30.8 µM	5.32	7.5 µM	23.6 µM	33.9 µM											
O=S(=O)(O)c1cccc2c(N=Nc3c(O)ccc4ccccc34)cccc12	> 100 µM	> 100 µM	> 100	> 100 µM	> 100 µM	> 100	> 100 µM	> 100 µM	> 100 µM											
N[C@H]1CCN(c2c(F)cc3c(=O)c(C(=O)O)cn4c3c2Oc2cc3c(ccc5ccccc53)cc2-4)C1	> 100 µM	> 100 µM	> 100	> 100 µM		> 100	9.28 µM	> 100 µM												
CC(=O)N(C)c1ccc2c(ccc[n+]2[O-])c1[N+](=O)[O-]			> 100	> 100 µM			> 100 µM	> 100 µM	> 100 µM	> 100										
O=C1c2cc3c(cc2-c2c1c1ccc(Cl)cc1c(=O)n2C[C@H](O)[C@@H](O)[C@H](O)CO)OCO3		> 100 µM	0.207	0.111 µM	0.29 µM	0.172	0.895 µM	> 100 µM			0.0216 µM	0.0673	0.0129 µM	0.0132 µM	0.0117	0.08 µM	0.0473 µM			
CC(=O)OC1CC(O)CC2=CCC3C4CCC(C(C)(O)C(O)CC5COC(=O)C5C)C4(C)CCC3C21C (configuration not stated)	> 25 µM	> 25 µM	> 25	> 25 µM	> 25 µM	> 25	> 25 µM	> 25 µM	> 25 µM											
CN(C)CCn1c(=O)c2ccc3c4c(nn3CCN(C)C)c3cc(N)ccc3n(c1=O)c24	> 42.5 µM	0.455 µM	0.364	0.281 µM	0.849 µM	0.27	0.199 µM	0.069 µM	0.0971 µM											
CCC(C)C1NC(=O)C2CCCN2C(=O)C(CC2CO2)OC(=O)CCNC(=O)C(C)N(C)C(=O)C(C(C)C)N(C)C1=O (configuration not stated)		> 100 µM	> 100	2.15 µM	> 100 µM	> 100	47.3 µM	> 100 µM												
CC1(C)CCC2(C(=O)OC3OC(CO)C(O)C(O)C3O)CCC3(C)C(=CCC4C5(C)CCC(OC6OC(CO)C(O)C(O)C6O)C(C)(C)C5CCC43C)C2C1 (configuration not stated)	10.7 µM	> 25 µM	> 25	> 25 µM	24.3 µM	12.9	> 25 µM	> 25 µM	> 25 µM											

Structure (SMILES)	TGI (SR leukemia)	TGI (SNB-19 CNS)	TGI (A498 renal) [µM]	TGI (UACC-62 melanoma)	TGI (T-47D breast)	TGI (NCI-H522 lung) [µM]	TGI (COLO 205 colon)	TGI (SN12C renal)	TGI (SNB-75 CNS)	TGI (LXFL 529 NSCLC) [µM]	GI50 (SNB-19 CNS)	GI50 (A498 renal) [µM]	GI50 (UACC-62 melanoma)	GI50 (T-47D breast)	GI50 (NCI-H522 lung) [µM]	GI50 (COLO 205 colon)	GI50 (SN12C renal)	GI50 (SR leukemia)	GI50 (SNB-75 CNS)	GI50 (LXFL 529 NSCLC) [µM]
Nc1ccc2c(c1)C(=O)N(O)C2=O	> 100 µM	> 100 µM	> 100	> 100 µM				> 100 µM	> 100 µM	> 100										
CC1(C)CC(=O)C2=C(C1)NC(SSC1=C(C#N)C(c3ccc(F)cc3)C3=C(CC(C)(C)CC3=O)N1)=C(C#N)C2c1ccc(F)cc1 (configuration not stated)	> 150 µg/mL	> 150 µg/mL		43.9 µg/mL	15 µg/mL		55.8 µg/mL	52.1 µg/mL	> 150 µg/mL		77.1 µg/mL		23.7 µg/mL	15 µg/mL		29.1 µg/mL	27.9 µg/mL	48.9 µg/mL	41.3 µg/mL	
O=C(O)C(CSC(c1ccccc1)(c1ccccc1)c1ccccc1)N=Cc1cccs1 (configuration not stated)	> 100 µM	> 100 µM	> 96.8	> 78.3 µM	> 100 µM	> 20.1	6.49 µM	98.1 µM	> 79.5 µM											
O=C(CCN1CC2CCC(CC2)C1)c1cccs1	24.6 µM	> 100 µM	> 100	31.9 µM	24.1 µM	36.3	34.7 µM	37.6 µM	35 µM											
CCOC(=O)/C(=C\NCC(OCC)OCC)c1nc2ccccc2[nH]1	58.5 µM	> 100 µM	> 100	33.2 µM	94.5 µM	62.1	39.6 µM	> 100 µM	61.6 µM											
CCOC(=O)C1CCn2c(nc3c2c(=O)n(C)c(=O)n3C)S1 (configuration not stated)	> 100 µM	> 100 µM		> 100 µM		> 100		> 100 µM	> 100 µM	> 100										
O=CN1CCN(C(=O)c2cc(Cl)cc(Cl)c2)C1=S		35 µM	29.6	31.2 µM	36.7 µM	15.4	33.8 µM	31 µM	27 µM											
CC1=C2C(=O)OCC23C=COC3(C)O1 (configuration not stated)	> 100 µM	> 100 µM	> 100	46.7 µM	> 100 µM	78.9	47.7 µM	> 100 µM	77.3 µM											
O=[N+]([O-])c1ccc2c(c1)c(N=NC(=S)NC1CCCCC1)c(O)n2CN1CCOCC1	21.5 µM	22.2 µM	17.5	20.5 µM	17.7 µM	30.3	23.4 µM	19.7 µM	24.2 µM											
CS(=O)(=O)c1nc(-c2cc3c(c(S(C)(=O)=O)n2)CCCC3)cc2c1CCCC2	> 100 µM	> 100 µM	> 100	> 62.3 µM	> 100 µM	> 77.6	> 100 µM	> 100 µM	25.3 µM											
C/C(=N\NC(=O)c1cccnc1)c1cccc(/C(C)=N/NC(=O)c2cccnc2)n1	> 100 µM	> 100 µM	68.1	5.7 µM		6.76	> 100 µM	> 100 µM	42.5 µM	> 100		4.86			1.58	4.15 µM		4.56 µM	10.3 µM	2.47
C=C1C[C@@H](O)[C@@H](Br)C(C)(C)[C@]12CCC(C)(Cl)C(Br)C2 (some centres not stated)	> 100 µM	> 31.6 µM	97.5	> 100 µM	> 100 µM	44.1	> 33.7 µM	36 µM	> 71.5 µM											
Nc1ccccc1N/C(=C\C(=O)C(Cl)(Cl)Cl)c1ccccc1	> 100 µM	> 100 µM		45.3 µM	91.6 µM	35	98.1 µM	45.6 µM	> 100 µM											
COc1ccc(N=C2C(=O)C3=C(OC(C)(C)CC3)c3ccccc32)cc1	3.44 µM	2.36 µM	14.7	1.74 µM	2.2 µM	2.45	5.8 µM	1.63 µM	1.96 µM											
Clc1ccc(Nc2nc(Cl)c3[nH]cnc3n2)cc1Cl	55.7 µM	> 100 µM	34.9	> 100 µM	80.4 µM	56.7	37.9 µM	> 100 µM	52.3 µM											
[O-][N+](CCO)(CCO)c1ncnc2nc[nH]c12	> 100 µM	> 100 µM	> 100	> 100 µM	> 100 µM	> 100	> 100 µM	> 100 µM	> 100 µM											
CC[C@@]1(O)C(=O)OCc2c1cc1n(c2=O)Cc2c-1nc1ccc(O)cc1c2CC[Si](C)(C)C	< 0.001 µM	> 100 µM	0.0279	0.0172 µM and 0.0149 µM		0.299	1.16 µM													
O=S1(=O)OC(c2ccc(O)cc2)(c2ccc(O)cc2)c2ccccc21		> 100 µM	> 100	> 100 µM	> 100 µM	> 100	> 100 µM	> 100 µM	> 100 µM											

From PubChem BioAssay (NCI)
